Measurements taken from patent US4835156A, “Vasodilatory dihydrodibenzocycloheptyliden-ethyl piperazine derivatives and process for the preparation of these compounds” (Sociedad Espanola De Especialidades Terepeuticas, S.A., priority 1983, dated 1989).

What was measured:
[1] = Toxicity, indicative LD50, intraperitoneal; conditions: mouse, in vivo, ip, Swiss mice, 7 days post-administration
Description: Table 4 sets forth the results of the indicative LD50 for the most representative of the compounds according to the present invention.
The compounds are administered by the intraperitoneal route to Swiss mice, after which the toxic effects are observed, and the mortality rate and the LD50 7 days post-administration are calculated.

[2] = test system: Rat hind-quarters; assay: Vasodilatory activity, isolated rat hind-quarters (antagonism of vasoconstriction by hyperkalaemic Tyrode solution); conditions: crosses relative to standard drugs cinnarizine and flunarizine;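 also: four crosses equal an effect comparable to the standard drug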
Excerpt: (§1) The significance of the symbols is as follows:
In order to test the vasodilatory activity, the first trial employs the technique of the isolated rat hind-quarters (Table 2), which involves antagonizing the vasoconstrictive effect of perfusion of hyperkalaemic Tyrode solution, according to the method of F. N. Fastier and F. H. Smirk (J. Pharm. Exp. Therap. 89, […] (1947)), and then calculating for the products which show the greatest activity, the ED30, that is the dose which produces a 30% vasodilatory activity with respect to the basic vasoconstriction.

[3] = test system: Rabbit cerebral territory; assay: Vasodilation in perfused rabbit cerebral territory (variation in perfusion pressure); format: in vivo; conditions: for Vasodilatory Index: % vasodilation multiplied by duration of action; for Vasodilatory Activity (Rabbit cerebral territory) Evaluation: crosses relative to standard cinnarizine;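 as to Vasodilatory Activity (Rabbit cerebral territory) Evaluation: four crosses equal an effect comparable to the standard drug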
Description: as §1
In a further trial, the vasodilatory activity is evaluated by the technique of vasodilation in perfused rabbit cerebral territory as described by P. Vaupel and H. Hutten (Arzneim. Forsch./Drug Res. 30(I), 598-602 (1980)), calculating the variation in perfusion pressure after treatment (Table 3).
Table 3 employs the same conventional signs based on crosses, with the same relative significance as in Table 2.

O=C(CN1CCN(CC=C2c3ccccc3CCc3ccccc32)CC1)NC(=O)NCN1CCOCC1 [WAS-4601]
LD50 at 168 h [1]: 125 mg/kg | Vasodilatory Activity (Rat hind-quarters) Evaluation [2]: ++++ | Vasodilatory Index [3]: 180.8 mm^2 | Vasodilatory Activity (Rabbit cerebral territory) Evaluation [3]: +

C(CN1CCN(Cc2ccco2)CC1)=C1c2ccccc2CCc2ccccc21 [WAS-4221]
LD50 at 168 h [1]: 185 mg/kg | Vasodilatory Activity (Rat hind-quarters) Evaluation [2]: 0 | Vasodilatory Index [3]: 321.4 mm^2 | Vasodilatory Activity (Rabbit cerebral territory) Evaluation [3]: +++

COC(=O)C=CCN1CCN(CC=C2c3ccccc3CCc3ccccc32)CC1 [WAS-4237]
LD50 at 168 h [1]: 3000 mg/kg | Vasodilatory Activity (Rat hind-quarters) Evaluation [2]: ++++ | Vasodilatory Index [3]: 19.6 mm^2 | Vasodilatory Activity (Rabbit cerebral territory) Evaluation [3]: 0

C(CN1CCN(Cc2ccccn2)CC1)=C1c2ccccc2CCc2ccccc21 [WAS-4232]
LD50 at 168 h [1]: 115 mg/kg | Vasodilatory Activity (Rat hind-quarters) Evaluation [2]: ++ | Vasodilatory Index [3]: 46.8 mm^2 | Vasodilatory Activity (Rabbit cerebral territory) Evaluation [3]: 0

Fc1ccc(C(c2ccc(F)cc2)N2CCN(C/C=C/c3ccccc3)CC2)cc1 [Flunarizine, reference compound]
Vasodilatory Activity (Rat hind-quarters) Evaluation [2]: ++++

C(CN1CCN(Cc2ccccc2)CC1)=C1c2ccccc2CCc2ccccc21 [WAS-4206, N-benzyl-N'-2-(10,11-dihydrodibenzo-(a,d)-cyclohept-5-yliden)-ethyl piperazine]
LD50 at 168 h [1]: 880 mg/kg | Vasodilatory Activity (Rat hind-quarters) Evaluation [2]: ++++ | Vasodilatory Index [3]: 285.3 mm^2 | Vasodilatory Activity (Rabbit cerebral territory) Evaluation [3]: ++

O=C(CN1CCN(CC=C2c3ccccc3CCc3ccccc32)CC1)N1CCOCC1 [WAS-4222]
LD50 at 168 h [1]: 185 mg/kg | Vasodilatory Activity (Rat hind-quarters) Evaluation [2]: + | Vasodilatory Index [3]: 454.6 mm^2 | Vasodilatory Activity (Rabbit cerebral territory) Evaluation [3]: ++++

O=C(C=CCN1CCN(CC=C2c3ccccc3CCc3ccccc32)CC1)c1ccccc1 [WAS-4605]
LD50 at 168 h [1]: 115 mg/kg | Vasodilatory Activity (Rat hind-quarters) Evaluation [2]: ++++ | Vasodilatory Index [3]: 420.9 mm^2 | Vasodilatory Activity (Rabbit cerebral territory) Evaluation [3]: ++++

C(CN1CCN(Cc2cccnc2)CC1)=C1c2ccccc2CCc2ccccc21 [WAS-4227]
LD50 at 168 h [1]: 175 mg/kg | Vasodilatory Activity (Rat hind-quarters) Evaluation [2]: + | Vasodilatory Index [3]: 253.7 mm^2 | Vasodilatory Activity (Rabbit cerebral territory) Evaluation [3]: ++

O=C(O)CN1CCN(CC=C2c3ccccc3CCc3ccccc32)CC1 [WAS-4233]
LD50 at 168 h [1]: 900 mg/kg | Vasodilatory Activity (Rat hind-quarters) Evaluation [2]: 0 | Vasodilatory Index [3]: 0 mm^2 | Vasodilatory Activity (Rabbit cerebral territory) Evaluation [3]: 0

C(=Cc1ccccc1)CN1CCN(CC=C2c3ccccc3CCc3ccccc32)CC1 [WAS-4207]
LD50 at 168 h [1]: 925 mg/kg | Vasodilatory Activity (Rat hind-quarters) Evaluation [2]: ++++ | Vasodilatory Index [3]: 16.2 mm^2 | Vasodilatory Activity (Rabbit cerebral territory) Evaluation [3]: 0

O=C(CN1CCN(CC=C2c3ccccc3CCc3ccccc32)CC1)NC12CC3CC(CC(C3)C1)C2 [WAS-4239]
LD50 at 168 h [1]: 340 mg/kg | Vasodilatory Activity (Rat hind-quarters) Evaluation [2]: ++ | Vasodilatory Index [3]: 0 mm^2 | Vasodilatory Activity (Rabbit cerebral territory) Evaluation [3]: 0

C=CCN1CCN(CC=C2c3ccccc3CCc3ccccc32)CC1 [WAS-4225]
LD50 at 168 h [1]: 175 mg/kg | Vasodilatory Activity (Rat hind-quarters) Evaluation [2]: ++++ | Vasodilatory Index [3]: 0 mm^2 | Vasodilatory Activity (Rabbit cerebral territory) Evaluation [3]: 0

O=C(CN1CCN(CC=C2c3ccccc3CCc3ccccc32)CC1)N1CCCC1 [WAS-4224]
LD50 at 168 h [1]: 385 mg/kg | Vasodilatory Activity (Rat hind-quarters) Evaluation [2]: 0 | Vasodilatory Index [3]: 342.0 mm^2 | Vasodilatory Activity (Rabbit cerebral territory) Evaluation [3]: +++

CCOC(=O)CN1CCN(CC=C2c3ccccc3CCc3ccccc32)CC1 [WAS-4231]
LD50 at 168 h [1]: 175 mg/kg | Vasodilatory Activity (Rat hind-quarters) Evaluation [2]: ++ | Vasodilatory Index [3]: 0 mm^2 | Vasodilatory Activity (Rabbit cerebral territory) Evaluation [3]: 0

COC(=O)c1cc(CN2CCN(CC=C3c4ccccc4CCc4ccccc43)CC2)ccc1O [WAS-4604]
LD50 at 168 h [1]: 900 mg/kg | Vasodilatory Activity (Rat hind-quarters) Evaluation [2]: + | Vasodilatory Index [3]: 20.0 mm^2 | Vasodilatory Activity (Rabbit cerebral territory) Evaluation [3]: 0

OCCN1CCN(CC=C2c3ccccc3CCc3ccccc32)CC1 [WAS-4229]
LD50 at 168 h [1]: 115 mg/kg | Vasodilatory Activity (Rat hind-quarters) Evaluation [2]: 0 | Vasodilatory Index [3]: 55.6 mm^2 | Vasodilatory Activity (Rabbit cerebral territory) Evaluation [3]: 0

C(CN1CCN(Cc2ccncc2)CC1)=C1c2ccccc2CCc2ccccc21 [WAS-4220]
LD50 at 168 h [1]: 185 mg/kg | Vasodilatory Activity (Rat hind-quarters) Evaluation [2]: 0 | Vasodilatory Index [3]: 1159.2 mm^2 | Vasodilatory Activity (Rabbit cerebral territory) Evaluation [3]: ++++

O=C(CN1CCN(CC=C2c3ccccc3CCc3ccccc32)CC1)c1ccccc1 [WAS-4602]
LD50 at 168 h [1]: 200 mg/kg | Vasodilatory Activity (Rat hind-quarters) Evaluation [2]: 0 | Vasodilatory Index [3]: 378.3 mm^2 | Vasodilatory Activity (Rabbit cerebral territory) Evaluation [3]: +++

O=C(CN1CCN(CC=C2c3ccccc3CCc3ccccc32)CC1)N1CCCCC1 [WAS-4223]
LD50 at 168 h [1]: 185 mg/kg | Vasodilatory Activity (Rat hind-quarters) Evaluation [2]: 0 | Vasodilatory Index [3]: 1133.6 mm^2 | Vasodilatory Activity (Rabbit cerebral territory) Evaluation [3]: ++++

C(CN1CCN(Cc2ccc3c(c2)OCO3)CC1)=C1c2ccccc2CCc2ccccc21 [WAS-4234]
LD50 at 168 h [1]: 600 mg/kg | Vasodilatory Activity (Rat hind-quarters) Evaluation [2]: 0 | Vasodilatory Index [3]: 0 mm^2 | Vasodilatory Activity (Rabbit cerebral territory) Evaluation [3]: 0

C(CN1CCN(Cc2cccs2)CC1)=C1c2ccccc2CCc2ccccc21 [WAS-4226, N-2-(10,11-dihydrodibenzo-(a,d)-cyclohept-5-yliden)-ethyl-N'-(2-thenyl)-piperazine]
LD50 at 168 h [1]: 385 mg/kg | Vasodilatory Activity (Rat hind-quarters) Evaluation [2]: 0 | Vasodilatory Index [3]: 74.0 mm^2 | Vasodilatory Activity (Rabbit cerebral territory) Evaluation [3]: 0
